In patent EP0069521A2, “Pyridinyl and imidazolyl derivatives of benzofurans and benzothiophenes” (THE UPJOHN COMPANY, priority 1981, dated 1983):

Molecular target: T1, TXA2 synthetase (Homo sapiens, UniProt P24557)
T1 construct: generated by mixing prostaglandin H2 (PGHz) with human platelet microsomes (HPM); from tissue; host or cells: human platelet microsomes
T1 sequence (P24557 1-533): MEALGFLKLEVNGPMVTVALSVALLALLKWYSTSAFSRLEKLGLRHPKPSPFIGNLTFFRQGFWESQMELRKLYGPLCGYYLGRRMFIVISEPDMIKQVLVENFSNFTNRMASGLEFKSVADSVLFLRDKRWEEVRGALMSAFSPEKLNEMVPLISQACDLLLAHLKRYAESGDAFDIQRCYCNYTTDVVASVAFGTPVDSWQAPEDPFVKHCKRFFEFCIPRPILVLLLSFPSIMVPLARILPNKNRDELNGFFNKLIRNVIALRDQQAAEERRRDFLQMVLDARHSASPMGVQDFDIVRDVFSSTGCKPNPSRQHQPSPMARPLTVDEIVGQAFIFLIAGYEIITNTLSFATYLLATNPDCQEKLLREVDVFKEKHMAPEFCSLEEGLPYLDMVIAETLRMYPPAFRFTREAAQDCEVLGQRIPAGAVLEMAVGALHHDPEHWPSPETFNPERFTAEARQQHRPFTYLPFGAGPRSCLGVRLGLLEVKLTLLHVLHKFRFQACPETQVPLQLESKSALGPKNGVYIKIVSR
Assay: TXA2 inhibition test: TXA2 generated by mixing PGH2 with human platelet microsomes, response of superfused rabbit aortic strips
Assay type: biochemical
Settings: inhibiting TXA2 formation; test compound added to human platelet microsomes 5 minutes before mixing with PGH2; rabbit aorta response
Description: The compounds of the present invention were tested for TXA2 inhibition as follows: • Rabbit aortic strips were superfused in series with Krebs solution. Thromboxane Az (TXA2) was generated by mixing prostaglandin H2 (PGHz) with human platelet microsomes (HPM).
Potential inhibitors were tested by comparing the response of the rabbit aorta to the amount of TXA2 produced by mixing PGH2 and HPM without the test compound in the reaction medium and then the amount of TXA2 produced when the test compound was added to the HPM 5 minutes before the HPM was mixed with PGH2. […] For a discussion of TXA2 synthetase inhibition testing see, e.g., R. Gorman, supra.

approximate ED50: ~0.01 µg/mL
SMILES: O=C([O-])c1cc2cc(Cc3cccnc3)ccc2o1.[Na+] [Example A-2, Sodium 5-(3'-pyridinylmethyl)benzofuran-2-carboxylate]
